Molecules are shown by their SMILES.

This data set concerns SARS-COV-2 infection (severe COVID-19). Briefly: Randomized, parallel, double-blind, placebo-controlled clinical trial of oral pyridostigmine in adults hospitalized due to severe COVID-19. Format: in vivo, human. The settings on record: for Primary outcome: Invasive mechanical ventilation or death - %: N = 94, day 28, placebo 23.4%; for Death - % (28-day case fatality): day 28, 60 mg/day orally, placebo 20.2%; for Discharge - % (probability of being discharged from the hospital within 28 days of randomization): placebo 79.8%. The protocol:
The trial was conducted to reduce the incidence of mechanical ventilation or death in adults hospitalized due to severe COVID-19. A randomized, parallel, double-blind, placebo-controlled clinical trial was conducted. Participants were randomized (1:1 ratio) to receive oral pyridostigmine at a dose of 60 mg/day orally or an identical placebo (drug-grade starch) until the occurrence of any of the a priori specified outcomes, the hospital discharge or a maximum period of 14 days of hospital confinement, whichever comes first. The study was externally and independently watched and monitored by an independent Data and Security Monitoring Committee (DSMB). The study was conducted in two parts: an initial phase aimed at determining safety (from May 5 to Jul. 4, 2020) in which the first 44 participants were evaluated, followed by a part of a phase aimed at evaluating the effect, or lack thereof, of pyridostigmine in patients with severe COVID-19 (Jul. 5, 2020 to Jan. 30, 2021).
Adult hospitalized patients (>18 years) with confirmed SARS-COV-2 infection based on a positive RT-PCR test for SARS-COV-2 ribonucleic acid in a respiratory sample (nasopharyngeal or nasal swab) and a imaging study compatible with pneumonia, and at least one criterion of high risk of death.
Participants were randomized 1:1, with parallel allocation. Demographic information was collected from the participants at baseline, including age, sex, presence of comorbidities (including diabetes mellitus, hypertension, obesity, cardiovascular disease, lung disease or other chronic medical conditions). Participants who had already been discharged from the hospital by day 28 were contacted by phone to assess their vital and functional status.
Based on early evidence from China, an estimated 25% of patients hospitalized with severe SARS-COV-2 infection would develop complications that would lead to the need for invasive mechanical ventilation or death. Consequently, it is estimated that this sample size would allow us to identify with a power of 80% a reduction in the need for invasive mechanical ventilation or death of 10% in the group that received pyridostigmine compared to the group that received placebo, using a two-tailed […] at the significance level of 0.05. […] Based on the results of said analysis and with the data presented here, it was decided to terminate the study early.
The study was carried out at Instituto Nacional de Ciencias Médicas y Nutrición Salvador Zubirán (principal center) and Instituto Nacional de Cardiología Ignacio Chávez (recruiting center), two COVID-19 designated hospitals in Mexico City, Mexico.
An intention-to-treat analysis was performed comparing the proportion of outcomes between both therapeutic arms using the X^2 test. A multivariate logistic regression model was used to evaluate the variables associated with primary outcomes.

Where [1] appears, read: at the proposed dose of pyridostigmine (60 mg/day).
[2] abbreviates: secondary outcome, 60 mg/day orally, N = 94.

As for `CN(C)C(=O)Oc1ccc[n+](C)c1` [Pyridostigmine], the “Median time (IQR) from randomization to discharge” value (60 mg/day orally, N = 94) came out at 5 days. Under setting [1], the “Rate of adverse events” value is given as 5-6%. The Serious adverse effects entry under setting [1] is “no serious adverse effects reported”. In addition, the “Primary outcome: Invasive mechanical ventilation or death - %” value is “(11.7) %” (hospitalized severe COVID-19 patients, 60 mg/day orally up to 14 days, p=0.03) and 11.7% (hospitalized severe COVID-19 patients, 60 mg/day orally up to 14 days, p=0.03, listed as pyridostigmine). Further, where the note is “hospitalized severe COVID-19 patients, 60 mg/day orally up to 14 days, N = 94, intention to treat, day 28”, the “Primary outcome: Invasive mechanical ventilation or death - no.” value is 11. Further, for the setting “placebo 57.1%, no difference between groups”, the “Death after invasive mechanical ventilation (text, among ventilated patients)” value was determined as 33.3%. Besides, the “Risk index, 28-day case fatality” value (pyridostigmine vs. placebo, 95% CI 0.16 to 0.7, p=0.01) is 0.33. In addition, for the setting “pyridostigmine vs. placebo, 95% CI 0.24 to 0.94, p=0.03”, the “Hazard ratio, invasive mechanical ventilation or death on day 28” value is on record as 0.47. In addition, the “Death after invasive mechanical ventilation - no.” value under setting [2] is listed as 2. Moreover, the “Invasive mechanical ventilation - %” value is given as “(6.4) %” under setting [2] and 6.3% (secondary outcome, 60 mg/day orally, N = 94, listed as pyridostigmine). For the same molecule, the “Invasive mechanical ventilation - no.” value under setting [2] was found to be 6. Further, the Death - no. (secondary outcome, before day 28, 60 mg/day orally, N = 94) is 7. Besides, the “Death - % (28-day case fatality)” value runs as follows: (secondary outcome, N = 94, p=0.01) “(7.5) %”; (secondary outcome, N = 94, p=0.01, listed as pyridostigmine) 7.4%. Further, for the setting “secondary outcome, percent of all N = 94”, the “Death after invasive mechanical ventilation - %” value was “(2.1) %”. Also, where the note is “secondary outcome, within 28 days of randomization, N = 94”, the Discharge - no. came to 87. Also, the “Discharge - % (probability of being discharged from the hospital within 28 days of randomization)” value is listed as “(92.6) %” (within 28 days of randomization, N = 94, p=0.01) and 92.6% (within 28 days of randomization, N = 94, p=0.01, listed as pyridostigmine).
